Reference: US12083101B2, “Biaryl derivatives as YAP/TAZ-TEAD protein-protein interaction inhibitors” (Novartis AG, priority 2020, dated 2024)
Counter-ions that a name gives are not always drawn.

target: Avi-humanTEAD4 217-434 / Cy5 labeled humanYAP 60-100 (Homo sapiens (Human), UniProt Q15561); experiment: TR-FRET YAP-TEAD4 in-vitro biochemical assay; assay type: binding; conditions: 1 nM Avi-humanTEAD4 217-434, 20 nM Cy5-humanYAP 60-100, 1 h room temperature
Protocol: N-terminus Cy5 labeled humanYAP^60-100 (20 nM) was then added to this preparation. Compounds were dissolved at 10 mM in 100% DMSO and serial dilutions were made in 100% DMSO. The diluted compound solutions were incubated in white 384-well plates (Greiner Bio-One) for 1 h at room temperature with the above described mix. The final DMSO concentration present in the assay was 1%. […] The IC50 values were estimated by fitting the data by nonlinear fit regression (GraphPad Prism).

Sequence of Avi-humanTEAD4 217-434 / Cy5 labeled humanYAP 60-100 (Q15561 217-434): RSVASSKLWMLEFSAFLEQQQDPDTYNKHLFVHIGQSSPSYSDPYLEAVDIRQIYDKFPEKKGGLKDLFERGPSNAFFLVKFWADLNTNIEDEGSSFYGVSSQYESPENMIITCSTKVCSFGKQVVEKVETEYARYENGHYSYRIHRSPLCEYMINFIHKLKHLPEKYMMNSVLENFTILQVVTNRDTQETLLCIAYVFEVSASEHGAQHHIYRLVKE

In order of rising IC50:
1. NC[C@@]1(c2ccccc2)Cc2c(ccc(Cl)c2-c2c(C(N)=O)cnc(OC(F)F)c2F)O1 (atropisomer, axis not shown) [Example 19, 4-((2S,4S)-2-(Aminomethyl)-5-chloro-2-phenyl-2,3-dihydrobenzofuran-4-yl)-6-(difluoromethoxy)-5-fluoronicotinamide]  3 nM
2. NC[C@@]1(c2ccccc2)Cc2c(ccc(Cl)c2-c2c(C(N)=O)ccc(Cl)c2F)O1 (atropisomer, axis not shown) [Example 8, 2-((2S,4S)-2-(aminomethyl)-5-chloro-2-phenyl-2,3-dihydrobenzofuran-4-yl)-4-chloro-3-fluorobenzamide]  4 nM
3. NC[C@@]1(c2ccccc2)Cc2c(ccc(Cl)c2-c2c(C(N)=O)ccc(F)c2F)O1 (atropisomer, axis not shown) [Example 9, 2-((2S,4S)-2-(aminomethyl)-5-chloro-2-phenyl-2,3-dihydrobenzofuran-4-yl)-3,4-difluorobenzamide]  4 nM
4. NC[C@@]1(c2ccccc2)Cc2c(ccc(Cl)c2-c2c(C(N)=O)ccc(OCC(=O)O)c2F)O1 (atropisomer, axis not shown) [Example 16, 2-(3-((2S,4S)-2-(aminomethyl)-5-chloro-2-phenyl-2,3-dihydrobenzofuran-4-yl)-4-carbamoyl-2-fluorophenoxy)acetic acid trifluoroacetate salt]  6 nM
5. Cn1nccc1NC(=O)c1ccc(F)c(F)c1-c1c(Cl)ccc2c1C[C@@](CN)(c1ccccc1)O2 (atropisomer, axis not shown) [Example 24, 2-((2S,4S)-2-(aminomethyl)-5-chloro-2-phenyl-2,3-dihydrobenzofuran-4-yl)-3,4-difluoro-N-(1-methyl-1H-pyrazol-5-yl)benzamide]  6 nM
6. COc1ccc(C(=O)NC2CC2)c(-c2c(Cl)ccc3c2C[C@@](CN)(c2ccccc2)O3)c1F (atropisomer, axis not shown) [Example 23, 2-((2S,4S)-2-(aminomethyl)-5-chloro-2-phenyl-2,3-dihydrobenzofuran-4-yl)-N-cyclopropyl-3-fluoro-4-methoxybenzamide]  9 nM
7. NC[C@@]1(c2ccccc2)Cc2c(cc(F)c(Cl)c2-c2c(C(N)=O)ccc(OC(F)(F)CO)c2F)O1 (atropisomer, axis not shown) [Example 36, 2-((2S,4S)-2-(aminomethyl)-5-chloro-6-fluoro-2-phenyl-2,3-dihydrobenzofuran-4-yl)-4-(1,1-difluoro-2-hydroxyethoxy)-3-fluorobenzamide]  10 nM
8. CC(=O)N1CCO[C@@H](COc2ccc(C(N)=O)c(-c3c(Cl)ccc4c3C[C@@](CN)(c3ccccc3)O4)c2F)C1 (atropisomer, axis not shown) [Example 17, 4-(((R)-4-acetylmorpholin-2-yl)methoxy)-2-((2S,4S)-2-(aminomethyl)-5-chloro-2-phenyl-2,3-dihydrobenzofuran-4-yl)-3-fluorobenzamide]  13 nM
9. CS(=O)(=O)COc1ccc(C(N)=O)c(-c2c(Cl)c(F)cc3c2C[C@@](CN)(c2ccccc2)O3)c1F (atropisomer, axis not shown) [Example 40, 2-((2S,4S)-2-(aminomethyl)-5-chloro-6-fluoro-2-phenyl-2,3-dihydrobenzofuran-4-yl)-3-fluoro-4-((methylsulfonyl)methoxy)benzamide]  42 nM
10. NC[C@@]1(c2ccccc2)Cc2c(ccc(Cl)c2-c2c(Cl)cccc2C(N)=O)O1 (atropisomer, axis not shown) [Example 7, 2-((2S,4S)-2-(aminomethyl)-5-chloro-2-phenyl-2,3-dihydrobenzofuran-4-yl)-3-chlorobenzamide trifluoroacetate salt]  65 nM
11. Cc1cccc(C(N)=O)c1-c1c(Cl)ccc2c1C[C@@](CN)(c1ccccc1)O2 (atropisomer, axis not shown) [Example 6, 2-((2S,4R)-2-(aminomethyl)-5-chloro-2-phenyl-2,3-dihydrobenzofuran-4-yl)-3-methylbenzamide]  376 nM
